# Laboratory results published in patent US4693996A, “Method of treating heart failure and medicaments therefor” (Warner-Lambert Company, priority 1985, dated 1987).
# How the values were obtained:
# [1] = target: T1, A1 adenosine receptor (Rattus norvegicus, UniProt P25099); assay: A1 adenosine receptor binding, isolated rat brain membranes
# T1 construct: isolated rat brain membranes; from tissue; host or cells: rat brain membranes
# T1 sequence (P25099 1-326): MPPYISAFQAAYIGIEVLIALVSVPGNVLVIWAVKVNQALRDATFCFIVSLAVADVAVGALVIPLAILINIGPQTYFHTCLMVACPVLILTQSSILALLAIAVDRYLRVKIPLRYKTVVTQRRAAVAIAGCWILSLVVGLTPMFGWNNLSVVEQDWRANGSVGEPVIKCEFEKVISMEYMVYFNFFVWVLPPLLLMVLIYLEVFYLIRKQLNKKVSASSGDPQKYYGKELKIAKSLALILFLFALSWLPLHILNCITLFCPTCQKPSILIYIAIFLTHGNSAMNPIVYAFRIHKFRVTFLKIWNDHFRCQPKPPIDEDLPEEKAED
# [2] = test system: dopaminergic receptors; assay: dopaminergic receptor binding
# [3] = test system: muscarinic receptors; assay: muscarinic receptor binding
# [4] = test system: α1-adrenergic receptors; assay: α1-adrenergic receptor binding
# [5] = test system: α2-adrenergic receptors; assay: α2-adrenergic receptor binding
# [6] = test system: β1-adrenergic receptors; assay: β1-adrenergic receptor binding
# [7] = test system: β2-adrenergic receptors; assay: β2-adrenergic receptor binding
# [8] = test system: serotonergic receptors; assay: serotonergic receptor binding
# [9] = test system: α-aminobuteric acid receptors; assay: α-aminobuteric acid receptor binding
# [10] = test system: isolated-Langendorff perfused rat hearts; assay: isolated-Langendorff perfused rat hearts; details: 10^-8 -3×10^-6 M
# [11] = test system: anesthetized-vagotomized normotensive rats; assay: hemodynamics in anesthetized-vagotomized normotensive rats; format: in vivo, rat; details: IV 3 to 300 mg/kg
# Method: In this procedure the (R)-N-(2,3-dihydro-1H-inden-1-yl)adenosine (B) is administered intravenously (IV) at 3 to 300 mg/kg in anesthetized-vagotomized normotensive rats.
# [12] = test system: anesthetized normotensive dogs; assay: hemodynamics in anesthetized normotensive dogs; format: in vivo, dog; details: IV
# Method: Such administration is by a method essentially described as follows:
# Mongrel dogs of either sex are anesthetized with sodium pentobarbital (30 mg/kg IV) and mechanically ventilated with room air. The left and right femoral veins are cannulated for injection of test compound and maintenance anesthesia (3.5 mg/kg/hr), respectively. Cardiac output is measured by a thermodilution catheter positioned in the pulmonary artery. Left ventricular contractility (dP/dt) is measured by a Millar Mikro-Tip catheter pressure transducer positioned in the left ventricular cavity via the left carotid artery, heart rate, and lead II electrocardiogram are recorded continuously. Each animal is allowed 30 minutes to stabilize and hemodynamic control pressures, cardiac output, and electrocardiographic measurements are recorded. Compounds are dissolved in saline if possible and pH adjusted. If another solvent is required, vehicle control experiments are performed. Test compounds are administered as rising bolus doses usually starting at 0.1 midtherapeutic and increasing in half log doses to 30 X midtherapeutic. All cardiovascular measurements are repeated after each dose.
# Agent induced effects on any of the cardiovascular measurements are recorded.
# [13] = test system: anesthetized dog with propranolol-induced myocardial depression; assay: propranolol-induced acute heart failure in the anesthetized dog; format: in vivo; details: B 6 μg/kg/min infusion, A 0.01 to 3.0 mg/kg IV bolus
# Method: CONT indicates the control before propanolol induced cardiac depression, DEP indicates a stable propanolol depression, and TD indicates administration of the initial test drug, either saline or (R)-N-(2,3-dihydro-1H-inden-1-yl)adenosine (B).
# Adult mongrel dogs of either sex are anesthetized with sodium pentobarbital (32 mg/kg) IV, trachea intubated, and ventilated artificially. Anesthesia is maintained by a continuous infusion of sodium pentobarbital (3.0 mg/kg/hr) through a femoral vein cannula. Three additional venous cannulae are used for (1) propranolol infusion, (2) (R)-N-(2,3-dihydro-1H-inden-1-yl)adenosine or saline infusion and (3) bolus injections of either 4,5-dihydro-6-[4-(1H-imidazol-1-yl)phenyl]-3(2H)pyridazinone, hydrochloride salt or saline. Systemic arterial blood pressure, left ventricular contractility (dP/dt), and heart rate are recorded continuously. Cardiac output, measured by thermodilution, is recorded before myocardial depression, when stable myocardial depression is achieved (approximately 30 minutes), and ten minutes following each bolus dose. Following surgical preparation, 30 minutes are allowed for hemodynamic stabilization prior to induction of the myocardial depression. […]
# [14] = combination compared with A alone at comparable doses
smiles,measurement,setting,value
"OC[C@H]1O[C@@H](n2cnc3c(N[C@@H]4CCc5ccccc54)ncnc32)[C@H](O)[C@@H]1O [B, (R)-N-(2,3-dihydro-1H-inden-1-yl)adenosine]",IC50,[1],30 nM
same,binding to dopaminergic receptors,[2],does not significantly bind
same,binding to muscarinic receptors,[3],does not significantly bind
same,binding to α1-adrenergic receptors,[4],does not significantly bind
same,binding to α2-adrenergic receptors,[5],does not significantly bind
same,binding to β1-adrenergic receptors,[6],does not significantly bind
same,binding to β2-adrenergic receptors,[7],does not significantly bind
same,binding to serotonergic receptors,[8],does not significantly bind
same,binding to α-aminobuteric acid receptors,[9],does not significantly bind
same,heart rate,[10],decreases
same,coronary flow,[10]; isolated perfused rat heart,Concentration-dependent increases
same,heart rate,[11],dose-related decreases
same,mean arterial blood pressure,[11],dose-related decreases
same,calculated total peripheral resistance,[12],dose-related decreases
same,heart rate,[12],dose-related decreases
same,mean arterial blood pressure,[12],dose-related decreases
same,pressure volume relationship of the left ventricle (LVEDP vs stroke volume),[13],"did not increase dP/dt, cardiac output, or affect the pressure volume relationship"
same,cardiac output,[13]; [14],did not increase
same,myocardial contractility (dP/dt of left ventricular pressure),[13]; [14],did not increase
